Series [1] relates to Ehrlich. Kind of series: Antitumor activity against mouse Ehrlich ascites carcinoma cells xenografted in Swiss A mouse assessed as increase in survival time at 1 mg/kg, ip administered five doses in alternate days. The note with it: route intraperitoneal. On the set-up: unit not given here. It is filed as functional.
Series [2] has as its system Ehrlich. Kind of series: Induction of apoptosis in mouse Ehrlich ascites carcinoma cells assessed as intracellular ROS generation after 1 hr. The class given is functional, cell-based.
Series [3] deals with Ehrlich. Kind of series: Antitumor activity against mouse Ehrlich ascites carcinoma cells xenografted in Swiss A mouse assessed as increase in life span at 1 mg/kg, ip administered five doses in alternate days relative to control. The class given is functional. As to conditions: route intraperitoneal.
For another series, the system named is HEp-2. Kind of series: Cytotoxicity against human Hep2 cells after 24 hrs by MTT assay. The class given is functional, cell-based. The note with it: HEp-2, 24 h. In general terms: Formazan colour is commonly taken as a measure of viable cells.
Series [4] deals with Ehrlich. As to the kind of experiment: Cytotoxicity against mouse Ehrlich ascites carcinoma cells after 24 hrs by MTT assay. It is filed as functional, cell-based.
In series [5] the test system is PBMC. Kind of series: Cytotoxicity against human PBMC cells after 24 hrs by MTT assay. It is filed as cell-based.
A further series relates to A-375. As to the kind of experiment: Cytotoxicity against human A375 cells after 24 hrs by MTT assay. The class given is functional, cell-based. The note with it: A-375, 24 h.
Series [6] has as its system Ehrlich. As to the kind of experiment: Antitumor activity against mouse Ehrlich ascites carcinoma cells xenografted in Swiss A mouse assessed as inhibition of tumor growth at 1 mg/kg, ip administered five doses in alternate days measured after 16 days. It is filed as functional. On the set-up: unit not given here. The note with it: route intraperitoneal.
The subject of series [7] is Mus musculus. As to the kind of experiment: Effect on alkaline phosphatase activity in Swiss A mouse xenografted with mouse Ehrlich ascites carcinoma cells assessed as umole of PNPP hydrolysed per minute per decilitre of serum at 1 mg/kg, ip administered five doses in alternate days measured after 16 days relative to control. The class given is functional. On the set-up: unit: umol/min/dL. As to conditions: route intraperitoneal.

Series [8] relates to Mus musculus. As to the kind of experiment: Effect on serum LDH activity in Swiss A mouse xenografted with mouse Ehrlich ascites carcinoma cells assessed as LDH unit at 1 mg/kg, ip administered five doses in alternate days measured after 16 days relative to control. The class given is functional. Also on record: unit not given here. As to conditions: route intraperitoneal.
The test system of series [9] is Ehrlich. As to the kind of experiment: Induction of apoptosis in mouse Ehrlich ascites carcinoma cells assessed as intracellular ROS generation at 0.4 uM after 1 hr by measuring increase in fluorescent intensity relative to control. It is filed as functional.
Series [10] relates to Ehrlich. As to the kind of experiment: Induction of apoptosis in mouse Ehrlich ascites carcinoma cells assessed as intracellular ROS generation at 0.4 uM after 1 hr by measuring increase in fluorescent intensity relative to control in presence of N-acetyl L-cysteine. The class given is functional, cell-based.
Series [11] deals with Mus musculus. Kind of series: Toxicity in Swiss A mouse xenografted with mouse Ehrlich ascites carcinoma cells assessed as food and water intake at 1 mg/kg, ip administered five doses in alternate days measured after 16 days. The class given is organism-based. On the set-up: dose 1 mg/kg, route intraperitoneal. As to conditions: in vivo, 384 h.
Series [12] relates to PBMC. Kind of series: Selectivity ratio of IC50 for human Hep2 cells to IC50 for human PBMC cells.
Series [13] relates to PBMC. As to the kind of experiment: Selectivity ratio of IC50 for mouse Ehrlich ascites carcinoma to IC50 for human PBMC cells.
For series [14], the system named is Ehrlich. Kind of series: Antitumor activity against mouse Ehrlich ascites carcinoma cells xenografted in Swiss A mouse assessed as restoration of lymphocyte infiltration and sinusoid dilation at 1 mg/kg, ip administered five doses in alternate days measured after 16 days by histopathological study relative to untreated control. The class given is functional, organism-based. Also on record: dose 1 mg/kg.

In series [15] the test system is PBMC. As to the kind of experiment: Selectivity ratio of IC50 for human A375 cells to IC50 for human PBMC cells.
A short description of series [16]: Toxicity in single ip dosed Swiss A mouse. It is filed as organism-based. The note with it: in vivo.
For a further series, the system named is K562. As to the kind of experiment: Cytotoxicity against human K562 cells by MTT assay. The class given is functional, cell-based.
Another series concerns A-431. As to the kind of experiment: Cytotoxicity against human A431 cells by MTT assay. The class given is functional, cell-based.
The subject of the next series is HL-60. As to the kind of experiment: Cytotoxicity against human HL60 cells by MTT assay. It is filed as functional, cell-based.
For a further series, the system named is MCF7. As to the kind of experiment: Cytotoxicity against human MCF7 cells by MTT assay. It is filed as functional, cell-based.

From ChEMBL document CHEMBL1156718, “Synthesis of novel aminoquinonoid analogues of diospyrin and evaluation of their inhibitory activity against murine and human cancer cells” (Eur J Med Chem, 2008) come the findings set out here.

Usually IC50 stands for the point on the concentration scale where inhibition reaches its midpoint. As a reminder, the LD50 is the dose at which mortality reaches 50%.

Active and inactive are the calls of the source. The rule behind the calls is not given here. Bounds are passed on as bounds.

For the compound `COc1cc(C)cc2c1C(=O)C=C(c1c(C)cc3c(c1OC)C(=O)C(N)=CC3=O)C2=O`, the Activity in the series on Ehrlich [1] is 31.5; in the series with Ehrlich [2] it was “Dose-dependent effect”; in the series on Ehrlich [3], 72%; with Ehrlich [6], 3.4; in the series on Mus musculus [7], 4.4; with Mus musculus [8], 34.7. In addition, the IC50 with HEp-2 is 3510 nM; with Ehrlich [4], 350 nM; with PBMC [5], more than 100000 nM; in the series with A-375 it was 3240 nM.

Take `COc1cc(C)cc2c1C(=O)C(N)=C(c1c(C)cc3c(c1OC)C(=O)C(N)=CC3=O)C2=O`: the Activity in the series on Ehrlich [1] was found to be 30; with Ehrlich [3] it was 62%; in the series with Ehrlich [6], 3.9; with Mus musculus [7], 4.9; in the series with Mus musculus [8], 37.5. The IC50 in the series on HEp-2 was found to be 2340 nM; with Ehrlich [4], 370 nM; in the series on PBMC [5] it was 40600 nM; in the series on A-375, 1930 nM.

For `CCOC(=O)CNC1=CC(=O)c2cc(C)c(C3=CC(=O)c4c(OC)cc(C)cc4C3=O)c(OC)c2C1=O`, the Activity in the series with Ehrlich [1] is 34.9; with Ehrlich [2], “Dose-dependent effect”; in the series with Ehrlich [3], 81%; in the series on Ehrlich [6], 2.3; with Ehrlich [9], 9; with Mus musculus [7], 5.9. Moreover, the Activity with Mus musculus [8] is listed as 24.6. The IC50 in the series on HEp-2 was determined as 860 nM; in the series with Ehrlich [4], 90 nM; in the series on PBMC [5], 96200 nM; with A-375, 570 nM. The outcome with Ehrlich [10] was inactive.

With `COc1cc(C)cc2c1C(=O)C=C(c1c(C)cc3c(c1OC)C(=O)C(NCc1ccccc1)=CC3=O)C2=O`, the Activity in the series with Ehrlich [1] is 28.4; in the series on Ehrlich [2], “Dose-dependent effect”; in the series with Ehrlich [3], 47%; in the series with Ehrlich [6], 3; with Mus musculus [7], 3.1; in the series on Mus musculus [8], 31.8. Further, the IC50 is 2610 nM with HEp-2, 1410 nM in the series on Ehrlich [4], more than 100000 nM in the series on PBMC [5] and 550 nM with A-375.

`COc1cc(C)cc2c1C(=O)C=C(c1c(C)cc3c(c1OC)C(=O)C(Nc1ccc(Cl)cc1)=CC3=O)C2=O`: the Activity in the series with Ehrlich [1] was 34.3; in the series with Ehrlich [2] it was “Dose-dependent effect”; with Ehrlich [3], 69%; with Ehrlich [6], 2.7; in the series on Mus musculus [7], 6.4; with Mus musculus [8], 25.5. The IC50 in the series on HEp-2 turned out to be 650 nM; with Ehrlich [4], 250 nM; in the series with PBMC [5], 44900 nM; in the series with A-375, 630 nM.

`COc1cc(C)cc2c1C(=O)C=C(c1c(C)cc3c(c1OC)C(=O)C(Nc1ccc4ccccc4c1)=CC3=O)C2=O`: the Activity was 34 in the series on Ehrlich [1]; “Dose-dependent effect” in the series on Ehrlich [2]; 67% in the series on Ehrlich [3]; 2.9 in the series with Ehrlich [6]; 5.4 in the series with Mus musculus [7]; 23.5 in the series on Mus musculus [8]. In addition, the IC50 in the series on HEp-2 was 2040 nM; in the series on Ehrlich [4], 240 nM; with PBMC [5], 73800 nM; in the series on A-375 it was 80 nM.

For `COc1cc(C)cc2c1C(=O)C=C(c1c(C)cc3c(c1OC)C(=O)C(NC(C)=O)=CC3=O)C2=O`, the Activity is 35.7 with Ehrlich [1]; 93% in the series with Ehrlich [3]; 3.3 in the series on Ehrlich [6]; 9 in the series on Ehrlich [9]; “Non-toxic” in the series on Mus musculus [11]; 5.5 in the series on Mus musculus [7]. Further, in the series on Mus musculus [8], the Activity was determined as 26.3. Moreover, the IC50 was 920 nM in the series on HEp-2, 60 nM in the series on Ehrlich [4], 86500 nM with PBMC [5] and 60 nM with A-375. Moreover, in the series on Ehrlich [10], the result was inactive. The Selectivity ratio in the series on PBMC [12], in the series on PBMC [13] and in the series with PBMC [15] was 100 in each case. Also, the result with Ehrlich [14] was Active. Further, the LD50 in [16] was more than 60 mg/kg.

For `CCOc1cc(C)cc2c1C(=O)C=C(c1c(C)cc3c(c1OCC)C(=O)C=CC3=O)C2=O`, the IC50 stood at 40200 nM with K562, 15900 nM in the series with A-431, 30100 nM in the series on HL-60 and 19000 nM in the series on MCF7.

With `Cc1cc(O)c2c(c1)C(=O)C(c1c(C)cc3c(c1O)C(=O)C=CC3=O)=CC2=O` [DIOSPYRIN], the IC50 with K562 was more than 100000 nM; in the series on A-431, 65300 nM; in the series on HL-60, more than 100000 nM; with MCF7 it was 74800 nM. In addition, the Activity with Ehrlich [1] is reported as 23.2; in the series on Ehrlich [3], 36%; in the series with Ehrlich [6], 4.3; with Mus musculus [7] it was 3.7; with Mus musculus [8], 16.3. Moreover, the median lethal dose (LD50) in series [16] was found to be 25 mg/kg.

Take `COc1cc(C)cc2c1C(=O)C=C(c1c(C)cc3c(c1OC)C(=O)C=CC3=O)C2=O`: the IC50 in the series on K562 was more than 100000 nM; in the series with A-431, 28200 nM; in the series on HL-60, 64100 nM; in the series with MCF7 it was 46400 nM. The Activity with Ehrlich [1] is on record as 29.8; in the series with Ehrlich [3], 57%; with Ehrlich [6], 2.9; in the series with Mus musculus [7], 4.9; in the series on Mus musculus [8] it was 25.5. In series [16], this compound yielded an LD50 of 45 mg/kg.
